Columns and labels:
[1] = test system: Avena; test: Post-emergence test, herbicidal activity on Avena; assay type: in vivo; conditions: 21 days after application, average of 3 tests
Excerpt: (§1) The test plants (Avena and winter wheat) are raised under greenhouse conditions in seed trays to a post-application stage (1.5- to 2-leaf stage). Pinoxaden is then applied to the test plants either alone or in admixture with component b) and optionally c). For both applications an additive is used which contains per litre 45% by weight Agnique ME 18 RD-F and 25% by weight Emulsogen M in Solvesso 200 ND. Application of pinoxaden is effected in the form of an emulsifiable concentrate (EC 100), and component b) and optionally c) is used in the form of WP 25. Those formulations are used to prepare spray mixtures, each of 200 litres, which contain 50 g or 100 g of pinoxaden and component b) and optionally c) and in each case 0.5% of additive (based on the volume of the spray mixtures). The tests are evaluated 21 days after application (herbicidal activity 100%=plant completely dead; herbicidal activity 0%=no phytotoxic action on the plant). The results, which are values averaged from 3 tests, are compiled in the following Table.

[2] = test system: winter wheat; test: Post-emergence test, herbicidal activity on winter wheat; assay type: in vivo; conditions: 21 days after application, average of 3 tests
Excerpt: as §1

[3] = 100 g/ha pinoxaden + 0.5% additive

## CCc1cc(C)cc(CC)c1-c1c(OC(=O)C(C)(C)C)n2n(c1=O)CCOCC2 [pinoxaden]
[1]; 50 g/ha pinoxaden + 0.5% additive, 100%=plant completely dead
  Herbicidal activity on Avena: 82%
[1]; [3]
  Herbicidal activity on Avena: 87%
[2]; 50 g/ha pinoxaden + 0.5% additive, 0%=no phytotoxic action
  Herbicidal activity on Winter wheat: 8%
[2]; [3]
  Herbicidal activity on Winter wheat: 8%
